Target: T1, Dimer of Gag-Pol polyprotein [489-587] (Human immunodeficiency virus 1, UniProt P12497)
T1 construct: 489-587
Assay: Protease Inhibition Assay
Conditions: pH 4.7; 37 °C
Experimental: The inhibitory activities of the compounds toward HIV-1 PR were determined by sodium dodecyl sulfate-polyacrylamide gel electrophoresis (SDS-PAGE) assay. The Ki values of active compounds were determined using the partially purified protease and the synthetic substrate Ac-Ser-Gln-AsnTyr-Pro-Ile-Val-NH2.

| SMILES | Ki [nM] |
| --- | --- |
| Cn1cc(C(=O)N[C@@H](CC(N)=O)C(=O)N[C@@H](Cc2ccccc2)[C@H](O)C(=O)N2C[C@@H](Cl)C[C@H]2C(=O)NC(C)(C)C)c2ccccc21 [(1-Methylindole-3-carbonyl)- Asn - (2S,3S)-AHPBA-[4(S)-chloro]Pro tert-butylamide] | 20 |
| CC(C)(C)NC(=O)[C@@H]1C[C@H](Cl)CN1C(=O)[C@@H](O)[C@H](Cc1ccccc1)NC(=O)[C@H](CC(N)=O)NC(=O)c1noc2ccccc12 [(2S)-2-(1,2-benzoxazol-3-ylformamido)-N-[(2S,3S)-4-[(2S,4S)-2-(tert-butylcarbamoyl)-4-chloropyrrolidin-1-yl]-3-hydroxy-4-oxo-1-phenylbutan-2-yl]butanediamide] | 28 |
| Cn1nc(C(=O)N[C@@H](CC(N)=O)C(=O)N[C@@H](Cc2ccccc2)[C@H](O)C(=O)N2C[C@@H](Cl)C[C@H]2C(=O)NC(C)(C)C)c2ccccc21 [(2S)-N-[(2S,3S)-4-[(2S,4S)-2-(tert-butylcarbamoyl)-4-chloropyrrolidin-1-yl]-3-hydroxy-4-oxo-1-phenylbutan-2-yl]-2-[(1-methyl-1H-indazol-3-yl)formamido]butanediamide] | 16 |
| CC(C)(C)NC(=O)[C@@H]1C[C@H](Cl)CN1C(=O)[C@@H](O)[C@H](Cc1ccccc1)NC(=O)[C@H](CC(N)=O)NC(=O)c1cc2cc(F)ccc2[nH]1 [(2S)-N-[(2S,3S)-4-[(2S,4S)-2-(tert-butylcarbamoyl)-4-chloropyrrolidin-1-yl]-3-hydroxy-4-oxo-1-phenylbutan-2-yl]-2-[(5-fluoro-1H-indol-2-yl)formamido]butanediamide] | 12.5 |
| COc1ccc2[nH]c(C(=O)N[C@@H](CC(N)=O)C(=O)N[C@@H](Cc3ccccc3)[C@H](O)C(=O)N3C[C@@H](Cl)C[C@H]3C(=O)NC(C)(C)C)cc2c1 [(2S)-N-[(2S,3S)-4-[(2S,4S)-2-(tert-butylcarbamoyl)-4-chloropyrrolidin-1-yl]-3-hydroxy-4-oxo-1-phenylbutan-2-yl]-2-[(5-methoxy-1H-indol-2-yl)formamido]butanediamide] | 21.5 |
| COc1cccc2cc(C(=O)N[C@@H](CC(N)=O)C(=O)N[C@@H](Cc3ccccc3)[C@H](O)C(=O)N3C[C@@H](Cl)C[C@H]3C(=O)NC(C)(C)C)oc12 [(2S)-N-[(2S,3S)-4-[(2S,4S)-2-(tert-butylcarbamoyl)-4-chloropyrrolidin-1-yl]-3-hydroxy-4-oxo-1-phenylbutan-2-yl]-2-[(7-methoxy-1-benzofuran-2-yl)formamido]butanediamide] | 4.5 |
| CC(C)(C)NC(=O)[C@@H]1C[C@H](Cl)CN1C(=O)[C@@H](O)[C@H](Cc1ccccc1)NC(=O)[C@H](CC(N)=O)NC(=O)c1cnc2ccccc2n1 [(Quinoxaline-2-carbonyl)-Asn-(2S,3S)-AHPBA-[4(S)-chloro]Pro tert-butylamide] | 4.7 |
| CC(C)(C)NC(=O)[C@@H]1CC(F)CN1C(=O)[C@@H](O)[C@H](Cc1ccccc1)NC(=O)[C@H](CC(N)=O)NC(=O)OCc1ccccc1 (stereo partly drawn) [Z-Asn-(2S,3S)-AHPBA-[4(S)-fluoro] Pro tert-butylamide] | 18 |
| CC(C)(C)NC(=O)[C@@H]1CC(Br)CN1C(=O)[C@@H](O)[C@H](Cc1ccccc1)NC(=O)[C@H](CC(N)=O)NC(=O)OCc1ccccc1 (stereo partly drawn) [Z-Asn-(2S,3S)-AHPBA.[4(S)-bromo]Pro tert-butylamide] | 22.5 |
| CC(C)(C)NC(=O)[C@@H]1C[C@@H](Cl)CN1C(=O)[C@@H](O)[C@H](Cc1ccccc1)NC(=O)[C@H](CC(N)=O)NC(=O)OCc1ccccc1 [Z-Asn-(2S,3S).AHPBA. [4(R ).chloro] Pro tert-butylamide] | 90 |
| CC(C)(C)NC(=O)[C@@H]1CC(=O)CN1C(=O)[C@@H](O)[C@H](Cc1ccccc1)NC(=O)[C@H](CC(N)=O)NC(=O)OCc1ccccc1 [Z-Asn.(2S,3S)-AHPBA.(4.oxo)Pro tert-butylamide] | 12.5 |
| CC(C)(C)NC(=O)[C@@H]1[C@@H](Cl)CCN1C(=O)[C@@H](O)[C@H](Cc1ccccc1)NC(=O)[C@H](CC(N)=O)NC(=O)OCc1ccccc1 [Z-Asn.(2S,3S)-AHPBA.[3(S)-chloro]Pro tert-butylamide] | 14.5 |
| CC(C)(C)NC(=O)[C@@H]1CC(O)CN1C(=O)[C@@H](O)[C@H](Cc1ccccc1)NC(=O)[C@H](CC(N)=O)NC(=O)OCc1ccccc1 (stereo partly drawn) [Z.Asn-(2S,3S)-AHPBA-[4(S)-hydroxy]Pro tert-butylamide] | 1 |
| CC(C)(C)NC(=O)[C@@H]1CC(Sc2ccccc2)CN1C(=O)[C@@H](O)[C@H](Cc1ccccc1)NC(=O)[C@H](CC(N)=O)NC(=O)OCc1ccccc1 (stereo partly drawn) [Z.Asn-(2S,3S)-AHPBA-[4(S)-phenylthio]Pro tert-butylamide] | 125 |
| CC(C)(C)NC(=O)[C@@H]1[C@@H](O)CCN1C(=O)[C@@H](O)[C@H](Cc1ccccc1)NC(=O)[C@H](CC(N)=O)NC(=O)OCc1ccccc1 [Z.Asn-(2S,3S).AHPBA.[3(S)-hydroxy]Pro tert-butyl-amide] | 32 |
| CC(C)(C)NC(=O)[C@@H]1C(O)CCN1C(=O)[C@@H](O)[C@H](Cc1ccccc1)NC(=O)[C@H](CC(N)=O)NC(=O)OCc1ccccc1 (stereo partly drawn) [benzyl N-[(1S)-1-{[(2S,3S)-4-[(2S)-2-(tert-butylcarbamoyl)-3-hydroxypyrrolidin-1-yl]-3-hydroxy-4-oxo-1-phenylbutan-2-yl]carbamoyl}-2-carbamoylethyl]carbamate] | 0.1 |
| CC(C)(C)NC(=O)[C@@H]1CC(F)(F)CN1C(=O)[C@@H](O)[C@H](Cc1ccccc1)NC(=O)[C@H](CC(N)=O)NC(=O)OCc1ccccc1 [benzyl N-[(1S)-1-{[(2S,3S)-4-[(2S)-2-(tert-butylcarbamoyl)-4,4-difluoropyrrolidin-1-yl]-3-hydroxy-4-oxo-1-phenylbutan-2-yl]carbamoyl}-2-carbamoylethyl]carbamate] | 35 |
| COC1(OC)C[C@@H](C(=O)NC(C)(C)C)N(C(=O)[C@@H](O)[C@H](Cc2ccccc2)NC(=O)[C@H](CC(N)=O)NC(=O)OCc2ccccc2)C1 [benzyl N-[(1S)-1-{[(2S,3S)-4-[(2S)-2-(tert-butylcarbamoyl)-4,4-dimethoxypyrrolidin-1-yl]-3-hydroxy-4-oxo-1-phenylbutan-2-yl]carbamoyl}-2-carbamoylethyl]carbamate] | 92 |
| CC(C)(C)NC(=O)[C@@H]1CC(N2CCOCC2)CN1C(=O)[C@@H](O)[C@H](Cc1ccccc1)NC(=O)[C@H](CC(N)=O)NC(=O)OCc1ccccc1 (stereo partly drawn) [benzyl N-[(1S)-1-{[(2S,3S)-4-[(2S)-2-(tert-butylcarbamoyl)-4-(morpholin-4-yl)pyrrolidin-1-yl]-3-hydroxy-4-oxo-1-phenylbutan-2-yl]carbamoyl}-2-carbamoylethyl]carbamate] | 1 |
| CC(C)(C)NC(=O)[C@@H]1CC(Cl)CN1C(=O)[C@@H](O)[C@H](Cc1ccccc1)NC(=O)[C@H](CC(N)=O)NC(=O)OCc1ccccc1 (stereo partly drawn) [benzyl N-[(1S)-1-{[(2S,3S)-4-[(2S)-2-(tert-butylcarbamoyl)-4-chloropyrrolidin-1-yl]-3-hydroxy-4-oxo-1-phenylbutan-2-yl]carbamoyl}-2-carbamoylethyl]carbamate] | 8 |
| CC(C)(C)NC(=O)[C@@H]1CCCN1C(=O)[C@@H](O)[C@H](Cc1ccccc1)NC(=O)[C@H](CC(N)=O)NC(=O)OCc1ccccc1 [benzyl N-[(1S)-1-{[(2S,3S)-4-[(2S)-2-(tert-butylcarbamoyl)pyrrolidin-1-yl]-3-hydroxy-4-oxo-1-phenylbutan-2-yl]carbamoyl}-2-carbamoylethyl]carbamate] | 57.5 |
| CC(C)(C)NC(=O)[C@@H]1C[C@@H](O)CN1C(=O)[C@@H](O)[C@H](Cc1ccccc1)NC(=O)[C@H](CC(N)=O)NC(=O)OCc1ccccc1 [benzyl N-[(1S)-1-{[(2S,3S)-4-[(2S,4R)-2-(tert-butylcarbamoyl)-4-hydroxypyrrolidin-1-yl]-3-hydroxy-4-oxo-1-phenylbutan-2-yl]carbamoyl}-2-carbamoylethyl]carbamate] | 56 |
